Target: T1, E1 and His-E2 Ubch10 (Homo sapiens, UniProt P22314)
T1 construct: host or cells: E. coli (His-Ubch10); Sf9 insect cells (E1)
T1 sequence (P22314 1-1058): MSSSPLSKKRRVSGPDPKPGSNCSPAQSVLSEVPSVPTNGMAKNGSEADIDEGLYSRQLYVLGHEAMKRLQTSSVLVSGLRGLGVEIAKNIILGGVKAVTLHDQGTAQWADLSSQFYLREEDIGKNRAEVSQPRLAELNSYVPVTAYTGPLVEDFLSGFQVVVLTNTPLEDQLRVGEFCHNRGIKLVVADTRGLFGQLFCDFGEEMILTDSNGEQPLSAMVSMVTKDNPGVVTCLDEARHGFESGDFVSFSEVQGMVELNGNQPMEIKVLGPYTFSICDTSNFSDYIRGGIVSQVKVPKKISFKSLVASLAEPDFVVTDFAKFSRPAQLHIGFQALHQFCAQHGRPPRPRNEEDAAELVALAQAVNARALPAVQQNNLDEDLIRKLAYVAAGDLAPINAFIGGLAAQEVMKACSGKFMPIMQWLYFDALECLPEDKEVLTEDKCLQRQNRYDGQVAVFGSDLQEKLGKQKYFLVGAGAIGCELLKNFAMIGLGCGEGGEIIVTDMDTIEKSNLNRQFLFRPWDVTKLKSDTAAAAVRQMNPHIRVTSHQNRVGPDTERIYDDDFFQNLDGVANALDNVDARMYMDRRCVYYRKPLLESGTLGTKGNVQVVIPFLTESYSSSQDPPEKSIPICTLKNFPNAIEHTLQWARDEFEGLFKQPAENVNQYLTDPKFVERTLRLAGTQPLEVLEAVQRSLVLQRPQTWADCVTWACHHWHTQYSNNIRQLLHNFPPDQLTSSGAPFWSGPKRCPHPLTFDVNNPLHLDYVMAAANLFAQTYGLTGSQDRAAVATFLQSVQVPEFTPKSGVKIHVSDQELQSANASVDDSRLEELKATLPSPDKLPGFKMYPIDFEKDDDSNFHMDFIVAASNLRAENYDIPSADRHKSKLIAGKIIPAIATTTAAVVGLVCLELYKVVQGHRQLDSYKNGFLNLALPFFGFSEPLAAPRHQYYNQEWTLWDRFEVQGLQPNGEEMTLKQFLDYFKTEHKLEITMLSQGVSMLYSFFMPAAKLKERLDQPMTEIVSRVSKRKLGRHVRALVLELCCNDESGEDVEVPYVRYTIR
Test: E1 to E2 transfer assay, His-E2 Ubch10, 1.0 μM ATP (low ATP)
Assay type: biochemical
Settings: Table 5, ATP inhibition properties; inhibition measured using IC50 values
Description: Biological assays for determining the transfer of ubiquitin from the E1 activating agent to the E2 conjugating agent are described in U.S. patent application Ser. Nos. 09/542,497 and 09/826,312 as well as in the PCT Application WO 01/75145, all of which are incorporated by reference in their entirety. The following assay example illustrates one way by which the ubiquitin ligase inhibitory activity of the compounds of the invention can be assayed. This assay example is not meant to limit in any way the use of the compounds of the invention as ubiquitin ligase inhibitors.
The attachment of a ubiquitin moiety to the E2 conjugating agent was assayed using Flag-ubiquitin that was purified from E. coli, E2 Ubch10 that was purified as a His-Ubch10 from E. coli, and E1 that was purified from Sf9 insect cells (Affiniti Research Products, Exeter, U.K.). The wells of a Nickel-substrate 96-well plate (Pierce Chemical) were blocked with 100 μl of 1% casein/phosphate buffered saline (PBS) for 1 hour at room temperature. The blocked Nickel-substrate plate was then washed three times with 200 μl of PBST (0.1% Tween-20 in PBS). Subsequently, Flag-ubiquitin reaction solution was added to each well so that the final concentration was 62.5 mM Tris pH 7.5, […], 0.75 mM DTT, 1.0 μM ATP (low ATP), and 100 ng Flag-ubiquitin. The final reaction solution volume was fixed to 80 μl with Millipore-filtered water. To this was added the following: a ubiquitin agent inhibitor in 10 μl of DMSO, 10 μl of E1 and His-E2 Ubch10 in 20 mM Tris buffer, pH 7.5, and 5% glycerol so that there was 10 ng/well of E1 and 20 ng/well of His-E2 Ubch10. The reaction was then allowed to proceed at room temperature for 1 hour.
After 1 hour, the wells were washed three times with 200 μl of PBST and the amount of E2-ubiquitin complex was measured. For measuring the amount of the E2-ubiquitin complex, 100 μl of Mouse anti-flag diluted 1:10,000 (Sigma Aldrich Fluka Chemicals, St. Louis, Mo.) and anti-mouse HRP diluted 1:15,000 (Jackson Immunoresearch labs, West Grove, Pa.) in PBST were added to each well and allowed to incubate at room temperature for another hour. The wells were then washed three times with 200 μl of PBST and 100 μl of luminol substrate (⅕ dilution) was added. The luminescence of each well was then measured using a […] to calculate the amount of E2-ubiquitin complex. This procedure was repeated using His-E2 Ubch5C instead of His-E2 Ubch10.
The table below illustrates the inhibitory properties of the pharmaceutical compostions of the invention comprising the compounds listed in the table using the assays described above. Inhibition was measured using IC50 values.

C=C(C)C(=O)Nc1ccc(C(=O)Nc2nc3ccc(OC)cc3s2)cc1 [Compound 15, 4-methacrylamido-N-(6-methoxybenzo[d]thiazol-2-yl)benzamide]
UBC10: ++ (++ indicates inhibition at 50 μM or or less)

COc1ccc2nc(NC(=O)c3ccc(N)cc3)sc2c1 [Compound 16, 4-amino-N-(6-methoxybenzo[d]thiazol-2-yl)benzamide]
UBC10: ++ (++ indicates inhibition at 50 μM or or less)

COc1ccc2nc(NC(=O)c3ccc(NC(C)=O)cc3)sc2c1 [Compound 17, 4-acetamido-N-(6-methoxybenzo[d]thiazol-2-yl)benzamide]
UBC10: ++ (++ indicates inhibition at 50 μM or or less)

COc1ccc2nc(NC(=O)c3ccc([N+](=O)[O-])cc3Cl)sc2c1 [Compound 18, 2-chloro-N-(6-methoxybenzo[d]thiazol-2-yl)-4-nitrobenzamide]
UBC10: −− (−− indicates marginal or no inhibition detected with this assay)

COc1ccc2nc(NC(=O)c3ccc(NC(=O)C4CCCCC4)cc3)sc2c1 [Compound 19, 4-(cyclohexanecarboxamido)-N-(6-methoxybenzo[d]thiazol-2-yl)benzamide]
UBC10: ++ (++ indicates inhibition at 50 μM or or less)

COc1ccc2nc(NC(=O)c3ccc([N+](=O)[O-])c(C)c3)sc2c1 [Compound 20, N-(6-methoxybenzo[d]thiazol-2-yl)-3-methyl-4-nitrobenzamide]
UBC10: −− (−− indicates marginal or no inhibition detected with this assay)

COc1ccc2nc(NC(=O)c3ccc(C)cc3)sc2c1 [Compound 21, N-(6-methoxybenzo[d]thiazol-2-yl)-4-methylbenzamide]
UBC10: ++ (++ indicates inhibition at 50 μM or or less)

COc1ccc2nc(NC(=O)c3ccc(C)c([N+](=O)[O-])c3)sc2c1 [Compound 23, N-(6-methoxybenzo[d]thiazol-2-yl)-4-methyl-3-nitrobenzamide]
UBC10: −− (−− indicates marginal or no inhibition detected with this assay)

COc1ccc2nc(NC(=O)c3ccc([N+](=O)[O-])cc3)sc2c1 [Compound 24, N-(6-methoxybenzo[d]thiazol-2-yl)-4-nitrobenzamide]
UBC10: ++ (++ indicates inhibition at 50 μM or or less)

COc1ccc2nc(NC(=O)c3ccc4ccccc4c3)sc2c1 [Compound 25, N-(6-methoxybenzo[d]thiazol-2-yl)-2-naphthamide]
UBC10: −− (−− indicates marginal or no inhibition detected with this assay)

COC(=O)c1ccc(C(=O)Nc2nc3ccc(OC)cc3s2)cc1 [Compound 26, methyl 4-((6-methoxybenzo[d]thiazol-2-yl)carbamoyl)benzoate]
UBC10: ++ (++ indicates inhibition at 50 μM or or less)

COc1ccc2nc(NC(=O)c3ccc(OC(C)=O)cc3)sc2c1 [Compound 27, 4-((6-methoxybenzo[d]thiazol-2-yl)carbamoyl)phenyl acetate]
UBC10: ++ (++ indicates inhibition at 50 μM or or less)

COc1ccc2nc(NC(=O)c3ccc(C(C)=O)cc3)sc2c1 [Compound 28, 4-acetyl-N-(6-methoxybenzo[d]thiazol-2-yl)benzamide]
UBC10: ++ (++ indicates inhibition at 50 μM or or less)

COc1ccc2nc(NC(=O)c3ccc4c(c3)OCCO4)sc2c1 [Compound 29, N-(6-methoxybenzo[d]thiazol-2-yl)-2,3-dihydrobenzo[b][1,4]dioxine-6-carboxamide]
UBC10: ++ (++ indicates inhibition at 50 μM or or less)

COc1ccc2nc(NC(=O)c3ccc(Cl)cc3)sc2c1 [Compound 30, 4-chloro-N-(6-methoxybenzo[d]thiazol-2-yl)benzamide]
UBC10: ++ (++ indicates inhibition at 50 μM or or less)

COc1ccc2nc(NC(=O)c3ccc(C#N)cc3)sc2c1 [Compound 31, 4-cyano-N-(6-methoxybenzo[d]thiazol-2-yl)benzamide]
UBC10: ++ (++ indicates inhibition at 50 μM or or less)

COc1ccc2nc(NC(=O)c3ccccc3)sc2c1 [Compound 32, N-(6-methoxybenzo[d]thiazol-2-yl)benzamide]
UBC10: ++ (++ indicates inhibition at 50 μM or or less)

COc1ccc(-c2ccc(C(=O)Nc3nc4ccc(OC)cc4s3)cc2)cc1 [Compound 33, 4′-methoxy-N-(6-methoxy-1,3-benzothiazol-2-yl)biphenyl-4-carboxamide]
UBC10: ++ (++ indicates inhibition at 50 μM or or less)

COc1ccc2nc(NC(=O)c3ccc(S(=O)(=O)N4CCCC4)cc3)sc2c1 [Compound 34, N-(6-methoxybenzo[d]thiazol-2-yl)-4-(pyrrolidin-1-ylsulfonyl)benzamide]
UBC10: ++ (++ indicates inhibition at 50 μM or or less)

COc1ccc2nc(NC(=O)c3ccc(Oc4ccccc4)cc3)sc2c1 [Compound 35, N-(6-methoxybenzo[d]thiazol-2-yl)-4-phenoxybenzamide]
UBC10: −− (−− indicates marginal or no inhibition detected with this assay)

COc1ccc(C(=O)Nc2nc3ccc(OC)cc3s2)cc1 [Compound 36, 4-methoxy-N-(6-methoxybenzo[d]thiazol-2-yl)benzamide]
UBC10: ++ (++ indicates inhibition at 50 μM or or less)

COc1ccc2nc(NC(=O)C3CCCN3S(=O)(=O)c3ccc(C)cc3)sc2c1 (stereo not shown) [Compound 37, N-(6-methoxybenzo[d]thiazol-2-yl)-1-tosylpyrrolidine-2-carboxamide]
UBC10: −− (−− indicates marginal or no inhibition detected with this assay)

COc1ccc2nc(NC(=O)C3Cc4ccccc4N3)sc2c1 (stereo not shown) [Compound 38, N-(6-methoxybenzo[d]thiazol-2-yl)indoline-2-carboxamide]
UBC10: ++ (++ indicates inhibition at 50 μM or or less)

COc1ccc2nc(NC(=O)[C@H]3Cc4ccccc4N3)sc2c1 [Compound 39, (R)-N-(6-methoxybenzo[d]thiazol-2-yl)indoline-2-carboxamide]
UBC10: ++ (++ indicates inhibition at 50 μM or or less)

COc1ccc2nc(NC(=O)Cc3cc4ccccc4n3C)sc2c1 [Compound 40, N-(6-methoxybenzo[d]thiazol-2-yl)-2-(1-methyl-1H-indol-2-yl)acetamide]
UBC10: ++ (++ indicates inhibition at 50 μM or or less)

COc1ccc2nc(NC(C)=O)sc2c1 [Compound 41, N-(6-methoxybenzo[d]thiazol-2-yl)acetamide]
UBC10: ++ (++ indicates inhibition at 50 μM or or less)

COc1ccc2nc(NC(=O)C34CC5CC(CC(C5)C3)C4)sc2c1 [Compound 42, N-(6-methoxy-1,3-benzothiazol-2-yl)adamantane-1-carboxamide]
UBC10: ++ (++ indicates inhibition at 50 μM or or less)

COc1ccc2nc(NC(=O)Cc3ccccc3)sc2c1 [Compound 43, N-(6-methoxybenzo[d]thiazol-2-yl)-2-phenylacetamide]
UBC10: −− (−− indicates marginal or no inhibition detected with this assay)
